This is an account of results in US6921824B1, “Ruthenium dimeric complexes suitable as antimetastatic and antineoplastic agents” (priority 1999, dated 2005).

One data set deals with MCa mammary carcinoma. In words: Pre-surgical treatment: prevention of lung metastases formation in mice with MCa mammary carcinoma. Type of data set: in vivo. Conditions: for Lung metastases Number % T/C / Lung metastases weight % T/C: Treated/Control; for Lung metastases Number mean / Lung metastases weight (mg) mean: evaluated day 29; for Body weight % var: variation day 11 to day 16 vs untreated controls; for Selectivity of action on lung metastases versus primary tumour: MCa mammary carcinoma model of the CBA mouse; for Number of lung metastases (in words) / Weight of lung metastases (in words): at two dose levels, pre-surgical treatment. The protocol: In vivo tests of the activity of the compounds according to the present invention in mice affected from MCa mammary carcinoma: prevention activity in the formation of lung metastases.
Five groups of CBA kin female mice weighing 23±3 g were inoculated with […] viable cells (as determined by the Trypan blue exclusion) of MCa mammary carcinoma in 0.05 ml Dulbecco's pH 7.4 buffered calcium and magnesium-free solution (PBS), by intramuscular injection with a sterile insulin syringe. The tumour cells were derived from donors of the same strain, injected with the same tumour cells, following the same procedures 2 weeks before. The suspension of tumour cells was prepared in PBS by mechanically mincing the tumour mass obtained from donor mice, and further removing tissue debris and cells by, respectively, filtration through a double layer of sterile gauze and centrifugation at 250× g for 10 minutes. Kin animals were obtained from a colony from Chester Beatthy from London (UK) which were grown in the University of Trieste animal house accordingly to the procedures accepted for the rearing of kin animals. The MCa mammary carcinoma tumour cell-line derived from a stock, stored in liquid nitrogen, of tumour cells obtained originally from Rudjer Boskovic Institute of Zagreb (HR).
From day 11 to day 16, after tumour cells implantation, five mice groups were treated intraperitoneally with a sterile insulin syringe, respectively with: • Group 1 Control (10 animals): 10 ml/kg of body weight/day of sterile and pyrogen-free physiological solution; • Group 2 (two subgroups a,b of five animals each): 7.5 (a), 15 (b) mg/kg of body weight/day of the compound prepared as described in Example 4 in sterile and pyrogen-free physiological solution; • Group 3 (2 subgroups c,d of five animals each): 15 (c), 30 (d) mg/kg of body weight/day of the compound prepared as described in Example 7 in sterile and pyrogen-free physiological solution; • Group 4 (2 subgroups e,f of 5 animals each): 25 (e), 50 (f) mg/kg of body weight/day of the compound prepared as described in Example 8 in sterile and pyrogen-free physiological solution; • Group 5 (2 subgroups g,h of 5 animals each): 12.5 (g), 25 (h) mg/kg of body weight/day of the compound prepared as described in Example 10 in sterile and pyrogen-free physiological solution.
The administered dosages were either approximated to LD0.1, or to half of it or to a quarter of it, as calculated separately in animals of the same strain and gender and with the same body weight, for an intraperitoneal treatment lasting 6 consecutive days, according to the method of Lichtfield and Wilcoxon, and with an observation time of 10 days since the last dose.
On day 17 since tumour cells implantation, the primary tumour was surgically removed, after general anesthesia of the animals by intraperitoneal injection of 125 mg/kg of Ketamine.
On day 29 since tumour cells implantation, the mice were sacrificed by cervical dislocation for the evaluation of lung metastases. The lungs were abducted from the animals immediately after sacrifice, divided in single lobes which then examined immediately with a low-magnification microscope equipped with a graduated ocular-grid for the measurement of the size of the metastases in which the a and b orthogonal axes (a≦b) were identified. Metastases were classified by size and the metastatic tumour weight for each animal was calculated as the sum of each single metastasis weight, each of them considered as a rotation solid developed around the above mentioned axes and calculated according to the formula (π/6)·a^2·b. The experimental data obtained were then processed by appropriate statistical tests. […]

Data set [1] deals with murine TS/A adenocarcinoma cells. Nature of the data set: In vitro cytotoxicity, MTT analysis (mitochondrial activity). Type of data set: cell-based. The protocol: In vitro cytotoxicity of complexes of the present invention on murine TS/A adenocarcinoma cells.
4×10^3 murine TS/A adenocarcinoma cells resuspended in 200 μl RPMI-1640 medium supplemented with 10% FCS (fetal calf serum), 2 mM glutamine and 50 μg/ml gentamicin sulphate, were seeded in a 96-wells plate. After 24 hours incubation at 37° C., in 5% CO2, the complexes as described in example 4 (A), in example 7 (B), in example 8 (C) and in example 10 (D), each solubilised in RPMI-1640 medium supplemented with 5% FCS, 2 mM glutamine and 50 μg/ml gentamicin sulphate, were added to the cells, each at a final concentration of 10^−4, 10^−5 and 10^−6 M. Cell viability tests were performed after 24, 48 and 72 hours of exposure to the compounds by assessing both the effect on protein synthesis and on mitochondrial activity by means of colorimetric assays, respectively the solphorodamine B test (SRB) and the MTT analysis. Each value (optical density) is the average percentage ±S.E. versus the untreated controls.
Values such as *p<0.05, **p<0.01 indicate average values statistically different from the controls. Analysis of Variance and Dunnet test were used in the comparison analysis.
The results are reported in Table 3, wherein both the effect on protein synthesis (SRB) and the mitochondrial activity (MTT) are reported for each complexes tested at different dosages after different exposure time.

Where [2] appears, read: 25 mg/kg/die i.p. day 11-16, pre-surgical.
Setting [3] is: 50 mg/kg/die i.p. day 11-16, pre-surgical.
The mark [4] stands for this setting: 7.5 mg/kg/die i.p. day 11-16, pre-surgical.
Setting [5] is: 15 mg/kg/die i.p. day 11-16, pre-surgical.
[6] abbreviates: 30 mg/kg/die i.p. day 11-16, pre-surgical.

Marks after values point to notes of the source that are not given here.

In the case of “[Na]2[trans-RuCl4(Me2SO)]2(μ-bipy) [Example 8]”, the “Lung metastases Number % T/C” value is recorded as 213% in the data set on MCa mammary carcinoma (setting [2]) and 15% in the data set on MCa mammary carcinoma (setting [3]). For the same compound, the entries for the “Lung metastases weight % T/C” value with MCa mammary carcinoma (setting [2]) and in the data set on MCa mammary carcinoma (setting [3]) were 144% and 4%, respectively. Further, the “Lung metastases Number mean” value turned out to be 111 in the data set on MCa mammary carcinoma (setting [2]) and 8.0 in the data set on MCa mammary carcinoma (setting [3]). For the same compound, the “Lung metastases weight (mg) mean” value is reported as 119 mg in the data set on MCa mammary carcinoma (setting [2]) and 3.1 mg in the data set on MCa mammary carcinoma (setting [3]). Also, the “Body weight % var” value in the data set on MCa mammary carcinoma (25 mg/kg/die i.p. day 11-16) was −3.4%; in the data set on MCa mammary carcinoma (50 mg/kg/die i.p. day 11-16), −1.7%. In addition, the “Selectivity of action on lung metastases versus primary tumour” value (from here on “Selectivity of action”) in the data set with MCa mammary carcinoma is on record as “act selectively on lung metastases”. Further, the “MTT optical density, average percentage ±S.E. versus untreated controls” value is reported as 33 ± 5** % in data set [1] (10^−4 M, exposure time 24 h); 52 ± 9** % in data set [1] (10^−4 M, exposure time 48 h); 68 ± 4** % in data set [1] (10^−4 M, exposure time 72 h); 129 ± 9% in data set [1] (10^−5 M, exposure time 24 h); 91 ± 3% in data set [1] (10^−5 M, exposure time 48 h); 90 ± 2% in data set [1] (10^−5 M, exposure time 72 h). Besides, the “MTT optical density, average percentage ±S.E. versus untreated controls” value in data set [1] (10^−6 M, exposure time 24 h) worked out at 91 ± 7%; in data set [1] (10^−6 M, exposure time 48 h), 103 ± 9%; in data set [1] (10^−6 M, exposure time 72 h), 93 ± 5%.
As to `C[SH](C)(=O)[Ru-]([Cl])([Cl])([Cl])([Cl])[n+]1cc[n+]([Ru-]([Cl])([Cl])([Cl])([Cl])[SH](C)(C)=O)cc1.[Na+].[Na+]` [Example 4, [Na]2[trans-RuCl4(Me2SO)]2(μ-pyz)], the “Lung metastases Number % T/C” value with MCa mammary carcinoma (setting [4]) is 27%; with MCa mammary carcinoma (setting [5]), 4%. In addition, the “Lung metastases weight % T/C” value in the data set with MCa mammary carcinoma (setting [4]) was 10%; in the data set on MCa mammary carcinoma (setting [5]), 0%. Further, the figures for the “Lung metastases Number mean” value with MCa mammary carcinoma (setting [4]) and in the data set on MCa mammary carcinoma (setting [5]) were 14.0 and 2.0, respectively. The “Lung metastases weight (mg) mean” value with MCa mammary carcinoma (setting [4]) was 8 mg; in the data set on MCa mammary carcinoma (setting [5]), 0.2 mg. Besides, the “Body weight % var” value with MCa mammary carcinoma (7.5 mg/kg/die i.p. day 11-16) was −4.6%; in the data set on MCa mammary carcinoma (15 mg/kg/die i.p. day 11-16), −3.3%. Moreover, the “Selectivity of action” value with MCa mammary carcinoma is listed as “act selectively on lung metastases”. In the data set on MCa mammary carcinoma, the “Number of lung metastases (in words)” value was “marked reduction”. In addition, the “Weight of lung metastases (in words)” value in the data set on MCa mammary carcinoma was “even more marked reduction”. Moreover, the “MTT optical density, average percentage ±S.E. versus untreated controls” value in data set [1] (10^−4 M, exposure time 24 h) is given as 34 ± 1** %; in data set [1] (10^−4 M, exposure time 48 h), 50 ± 7** %; in data set [1] (10^−4 M, exposure time 72 h), 59 ± 1** %; in data set [1] (10^−5 M, exposure time 24 h) it was 100 ± 10%; in data set [1] (10^−5 M, exposure time 48 h), 108 ± 12%; in data set [1] (10^−5 M, exposure time 72 h) it was 93 ± 4%. The “MTT optical density, average percentage ±S.E. versus untreated controls” value is listed as 105 ± 10% in data set [1] (10^−6 M, exposure time 24 h); 101 ± 9% in data set [1] (10^−6 M, exposure time 48 h); 89 ± 2% in data set [1] (10^−6 M, exposure time 72 h).
With `C[SH](C)(=O)[Ru-]([Cl])([Cl])([Cl])([Cl])[n+]1ccc[n+]([Ru-]([Cl])([Cl])([Cl])([Cl])[SH](C)(C)=O)c1.[Na+].[Na+]` [Example 7, [Na]2[trans-RuCl4(Me2SO)]2(μ-pym)], the “Lung metastases Number % T/C” value with MCa mammary carcinoma (setting [5]) amounted to 10%; with MCa mammary carcinoma (setting [6]) it was 6%. Also, the “Lung metastases weight % T/C” value in the data set with MCa mammary carcinoma (setting [5]) came to 2%; with MCa mammary carcinoma (setting [6]) it was 1%. The “Lung metastases Number mean” value is given as 5.0 in the data set with MCa mammary carcinoma (setting [5]) and 3.0 in the data set with MCa mammary carcinoma (setting [6]). In addition, the “Lung metastases weight (mg) mean” value with MCa mammary carcinoma (setting [5]) is 1.7 mg; with MCa mammary carcinoma (setting [6]), 0.8 mg. Also, the “Body weight % var” value in the data set on MCa mammary carcinoma (15 mg/kg/die i.p. day 11-16) is reported as −1.4%; with MCa mammary carcinoma (30 mg/kg/die i.p. day 11-16) it was −2.7%. Also, in the data set with MCa mammary carcinoma, the “Selectivity of action” value is “act selectively on lung metastases”. Moreover, the “Number of lung metastases (in words)” value in the data set with MCa mammary carcinoma is on record as “marked reduction”. Also, the “Weight of lung metastases (in words)” value in the data set on MCa mammary carcinoma is on record as “even more marked reduction”. Also, the “MTT optical density, average percentage ±S.E. versus untreated controls” value in data set [1] (10^−4 M, exposure time 24 h) is recorded as 90 ± 10%; in data set [1] (10^−4 M, exposure time 48 h), 71 ± 12* %; in data set [1] (10^−4 M, exposure time 72 h), 60 ± 1** %; in data set [1] (10^−5 M, exposure time 24 h), 117 ± 1%; in data set [1] (10^−5 M, exposure time 48 h) it was 104 ± 9%; in data set [1] (10^−5 M, exposure time 72 h), 93 ± 9%. Further, the “MTT optical density, average percentage ±S.E. versus untreated controls” value in data set [1] (10^−6 M, exposure time 24 h) stood at 110 ± 2%; in data set [1] (10^−6 M, exposure time 48 h) it was 110 ± 13%; in data set [1] (10^−6 M, exposure time 72 h) it was 104 ± 8%.
